Experimental data taken from patent US20250074946A1, “USE OF SE-DR AFFINITY PEPTIDE IN PREPARING DRUG FOR TREATING RHEUMATIC DISEASE” (HEBEI FITNESS BIOTECHNOLOGY CO., LTD., priority 2021, published 2025).
Like-named read-outs stand apart in the source and are kept apart here. Where a SMILES comes first, the peptide text is derived from it. Where no end group is shown, it is not given here.

What was measured:
[1] = system: immune system of healthy rats; assay: Immune indicators of SD rats after one month of administration (Example 4); assay type: in vivo, rat; details: once a day for 4 weeks, end of administration
Protocol: SD rats were used to investigate the effects of the SE-DR affinity peptides on the immune indicators of the rats after continuous administration for one month. […] At the end of administration, analysis was conducted on the serum anti-FNS007 antibodies, different types of serum immunoglobulins, the serum complement, the peripheral blood T lymphocyte and the serum cytokines.

CIA rats [2] = assay: CIA rat model: inflammation score AUC and peripheral blood T-cell subtypes (Example 3); assay type: in vivo; details: 0.2 mmol; for Inflammation score and area under the time curve (AUC): female Lewis CIA rats, tail vein once every other day for 15 days; for Th1 (%) / Th2 (%) / Th17 (%) / Treg (%): peripheral blood, […] after end of administration, flow cytometry
Protocol: Collagen-induced arthritis (CIA) model was established by intradermal injection of the emulsion formulated using type II bovine collagen (CII) together with incomplete Freund's adjuvant (IFA) into the tail head of a female Lewis rat. After the model establishment, the morphological changes of rats' four paws were examined every day. […] Except for the model group, the dosage of polypeptide was all set as 0.2 mmol. A control group was also set up, in which the drug was injected into the tail vein once every other day for […]. The area under the curve (AUC) of the inflammation score was used for the efficacy analysis from the day the rats were enrolled, once every other day, until the end of administration.

[3] = system: CIA rats with latent tuberculosis infection; details: for Observation on the daily condition of rats: during administration; for Tuberculosis recurrence rate / Inflammation score and area under the time curve (AUC) / Culture of MTB from lungs and spleens of rats at sacrifice: peptides 0.2 mmol, adalimumab 1 mg/kg; for Tuberculosis recurrence rate: 21 days; for Inflammation score and area under the time curve (AUC): tail i.v. once every other day for 21 days; for Culture of MTB from lungs and spleens of rats at sacrifice: sacrifice on day 22
PBMC = PBMC stimulation test, IL-6 in supernatant by ELISA; assay type: cell-based, human; details: PBMC 1×10^6 cell/ml, peptide 10 μg/ml, 5 days of culture
Source text: The SE-DR molecule is directly related to the pathogenesis of RA. It can present RA-related autoantigens in vivo, such as type II collagen (CII), heat shock protein 60 (Hsp60), cartilage glycoprotein (HCgp-39) and so on, and further activate autoreactive T cells, leading to the occurrence of rheumatoid arthritis. An important strategy for the treatment of RA is to use competitive inhibition to block the activation of autoreactive T cells by autoantigen peptides. […] Based on the above principles, we have designed and synthesized a series of altered peptide ligands, and screened for their affinity to SE-DR and for the activation ability on the peripheral blood T cells in RA patients. The specific steps and results are shown in Example 1 and Example 2.
3 mL ficoll was added to a 15 mL centrifuge tube, and 4 mL blood sample was then applied on the surface of ficoll. The tube was centrifuged at 400 g at 18-20° C. for 30-40 min. The upper layer of plasma was aspirated with a Pasteur pipette, and the PBMC layer (approximately 2 mL) was aspirated, and added to a 14 mL centrifuge tube previously filled with at least 3 volumes (6 mL) of PBS. The mixture was gently resuspended. The tube was centrifuged at 60-100 g for 10 min at 18-20° C. After centrifugation, the supernatant was removed with a Pasteur pipette, and the resulting cell mass was resuspended in 6-8 mL PBS and centrifuged at 18-20° C. for 10 min at 60-100 g to remove the supernatant. The cells were resuspended in an appropriate amount of 1640 complete medium and diluted to 1×10^6 cell/ml after cell counting. The diluted cell suspension was added to a 96-well plate. The positive control, allosteric peptide, was added to 100 μl cell culture to a final concentration of 10 μg/ml. The mixture was replenished to 200 μL with 1640 complete medium. After 5 days of culture, the supernatant was aspirated, centrifuged at 3000 rpm for 5 minutes, and the level of IL-6 in the supernatant was detected by ELISA.

[4] = system: immune system of healthy monkeys; assay: Immune indicators of cynomolgus monkeys after one month of administration (Example 5); assay type: in vivo, cynomolgus monkey; details: once a day for 4 weeks, end of administration
Source text: Cynomolgus monkeys were used to investigate the effects of the SE-DR affinity peptide on the immune indicators of cynomolgus monkeys after continuous administration for one month. […] At the end of administration, the immune indicators, including the serum anti-FNS007 antibodies, the immunoglobulins of different serotypes, the serum complement, the peripheral blood T lymphocyte and the serum cytokines, were observed.

[5] = system: CIA mice infected with chronic hepatitis B; assay: CIA mice infected with chronic hepatitis B (Example 8); assay type: in vivo, mouse; details: for ALT level / Hepatitis B activation rate (Ratio of ALT > 100 U/L): at sacrifice, day 28; for Observation on the daily condition of mice: during administration; for Inflammation score and area under the time curve (AUC): peptides 50 μmol, Abatacept 100 μg, tail i.v. once every other day for 27 days
Protocol: Establishment of chronic hepatitis B model in mice: DBA/1 mice were injected with Raav8-1. 3 HBV (1×10^12 vg/mL) via tail vein to establish HBV chronic hepatitis B model.
DBA/1 mice infected with chronic hepatitis B were used to establish CIA model with chronic hepatitis B infection. Methods: Two days after the mice were injected with Raav8-1.3 HBV (1×10^12 vg/mL) via tail vein, the emulsion of bovine C II and CFA (containing 100 μg collagen) was intradermally injected into the tail head of the mice for immunization. After 21 days, the mice were boosted once by intraperitoneal injection of the emulsion (containing 100 μg collagen) prepared by bovine C II and IFA. Thereafter, the morphological changes of the four paws of the mice were examined every day, and the mice were randomly assigned to the treatment group at inflammation score of 1. […] Another 10 mice with latent hepatitis B infection were not subjected to model establishment and set as the control group. PBS was administrated to both the model group and the control group. The mice in each group were given the corresponding drugs by tail intravenous injection at the volume of 10 ml/kg, once every other day, for 27 consecutive days. The mice were sacrificed on day 28 after administration. The inflammation scores of the four paws of the mice in each group were evaluated during the administration. The serological indicators for virus injection and liver function of the mice were detected on the day of booster immunization (22 days after tail vein injection) and at the time of sacrifice.

CIA rats [6] = assay type: in vivo, rat
Source text: Female Lewis rats were used to establish CIA model. Methods: The rats were immunized by intradermal injection with the emulsion prepared by bovine C II and IFA at the tail head. After 7 days, the rats were boosted once with the same method. Thereafter, the morphological changes of the four paws of the rats were examined every day. […] Another 8 female Lewis rats were not subjected to model establishment and set as the control group. PBS was administrated to both the model group and the control group. […] The inflammation scores of the four paws of the rats in each group were evaluated during the administration (once every other day), and the area under the curve (AUC) of the inflammation score was calculated during the administration. During drug discontinuation, the inflammation scores of the four paws of the rats in each group were continuously evaluated (once every other day), and the rats were sacrificed on day 22 after drug discontinuation. HE staining was performed on the ankle joint for tissue injury evaluation. The specific scoring criteria were as follows: 0=normal synovial tissue; 1=synovial hyperplasia and inflammatory cell infiltration; 2=pannus formation and cartilage erosion; 3=destruction of most of the cartilage with subchondral bone erosion; 4=loss of joint integrity, ankylosis.

[7] = inflammation score AUC, FNS007 0.2 mmol, adalimumab 1 mg/kg, i.v. once every other day

Row | Molecule | CD3% [1] | CD4% [1] [%] | CD8% [1] [%] | IFN-γ [1] [pg/mL] | IL-2 [1] [pg/mL] | IL-4 [1] [pg/mL] | TNF-α [1] [pg/mL] | Inflammation score and area under the time curve (AUC) (CIA rats [2]) | Th1 (%) (CIA rats [2]) | Th2 (%) (CIA rats [2]) | Th17 (%) (CIA rats [2]) | Treg (%) (CIA rats [2]) | Observation on the daily condition of rats [3] | Tuberculosis recurrence rate [3] [%] | Inflammation score and area under the time curve (AUC) [3] | Culture of MTB from lungs and spleens of rats at sacrifice [3] | IL-6 levels in the supernatant (PBMC) [ng/mL] | CD3% [4] [%] | CD4% [4] [%] | CD8% [4] [%] | other results
1 | YAKQATLALA [APL7] | 36.69 ± 17^ % | 18.29 ± 9.08 | 18.66 ± 8.61 | 2.33 ± 0.29 | 3.06 ± 0.97 | 2.55 ± 1.30 | 5.42 ± 1.23 | 60.48 ± 37.31 | 0.17 ± 0.10 | 4.38 ± 0.81 | 0.92 ± 0.08 | 5.22 ± 0.77 | No abnormality | 0 | 55.93 ± 29.87 | Negative | 3.7 | 61.83 ± 11.98 | 26.23 ± 7.31 | 23.72 ± 6.35 | IFN-γ [4]: 5.27 ± 0.59 pg/mL; IL-2 [4]: 4.24 ± 0.34 pg/mL; IL-4 [4]: 2.04 ± 0.19 pg/mL; TNF-α [4]: 2.44 ± 0.22 pg/mL; ALT level [5]: 48.53 ± 20.09 U/L; Observation on the daily condition of mice [5]: No abnormality; Inflammation score and area under the time curve (AUC) [5]: 96.19 ± 48.25
2 | adalimumab | – | – | – | – | – | – | – | – | – | – | – | – | obvious toxicity symptoms such as piloerection and reduced activity | 60 | 50.42 ± 27.13 | 6/10 Positive | – | – | – | – | Tuberculosis recurrence rate ([3]; listed as adalimumab): 60%; Inflammation score and area under the time curve (AUC) ([3]; listed as adalimumab): significantly reduce the inflammation score; Culture of MTB from lungs and spleens of rats at sacrifice ([3]; listed as adalimumab): positive in 6/10 rats; inflammation score during drug discontinuation compared with that at the time of drug discontinuation (CIA rats [6]; 21 days of observation after stopping at day 21): significantly increased; Pathological score during 21 days of drug discontinuation (CIA rats [6]; HE staining of ankle joint, score 0-4): 2.69 ± 0.80; AUC, during drug discontinuation (day 22-42) (CIA rats [6]; inflammation score AUC after stopping administration at day 21): 96.85 ± 26.51; AUC, during administration (day 1-21) (CIA rats [6]; [7]): 54.51 ± 22.72; AUC, the first week during administration (CIA rats [6]; [7]): 13.93 ± 4.81; AUC, during administration (day 1-21) (CIA rats [6]; inflammation score AUC, FNS007 0.2 mmol, adalimumab 1 mg/kg, i.v. once every other day, listed as adalimumab): 54.51; Incidence of infection in rats (CIA rats [6]; rat, in vivo): 10%; Observation on the daily state of rats (CIA rats [6]; rat, in vivo): Piloerection, epistaxis, prostration, reduced activity, etc.
3 | CC[C@H](C)[C@H](N)C(=O)N[C@@H](Cc1c[nH]c2ccccc12)C(=O)N[C@@H](Cc1ccc(O)cc1)C(=O)N[C@H](C(=O)N[C@@H](CO)C(=O)N[C@@H](CS)C(=O)N[C@@H](Cc1ccccc1)C(=O)NCC(=O)N[C@@H](CS)C(=O)N[C@@H](CCC(=O)O)C(=O)N[C@H](C(=O)N[C@@H](Cc1c[nH]cn1)C(=O)N[C@@H](C)C(=O)N[C@@H](CCSC)C(=O)N[C@@H](CC(C)C)C(=O)O)[C@@H](C)O)[C@@H](C)CC [APL9] (H-IWYISCFGCETHAML-OH; N-terminus and C-terminus assumed) | 36.08 ± 12.9% | 20.45 ± 8.45 | 17.10 ± 8.82 | 2.35 ± 0.27 | 3.03 ± 1.05 | 1.95 ± 0.95 | 4.79 ± 1.08 | 57.39 ± 39.33 | 0.20 ± 0.05 | 4.27 ± 0.53 | 0.95 ± 0.12 | 5.35 ± 0.84 | No abnormality | 0 | 54.49 ± 33.12 | Negative | 2.8 | 66.91 ± 11.93 | 28.67 ± 14.78 | 28.67 ± 14.78 | IFN-γ [4]: 5.01 ± 0.69 pg/mL; IL-2 [4]: 4.60 ± 0.55 pg/mL; IL-4 [4]: 2.24 ± 0.12 pg/mL; TNF-α [4]: 2.38 ± 0.24 pg/mL; ALT level [5]: 47.55 ± 18.78 U/L; Hepatitis B activation rate (Ratio of ALT > 100 U/L) [5]: 0%; Observation on the daily condition of mice [5]: No abnormality; Inflammation score and area under the time curve (AUC) [5]: 97.63 ± 50.13
4 | MGPKGRTVIIEQSLGSPKVTK [APL21] | 38.16 ± 8.98% | 18.72 ± 5.85 | 19.06 ± 5.4 | 2.64 ± 0.37 | 3.36 ± 1.45 | 2.32 ± 1.37 | 5.25 ± 1.28 | 59.44 ± 38.29 | 0.19 ± 0.08 | 4.23 ± 0.47 | 0.98 ± 0.10 | 5.14 ± 0.90 | No abnormality | 0 | 53.06 ± 37.25 | Negative | 4.2 | 66.16 ± 4.34 | 23.43 ± 8.46 | 23.43 ± 8.46 | IFN-γ [4]: 5.03 ± 0.22 pg/mL; IL-2 [4]: 4.18 ± 0.41 pg/mL; IL-4 [4]: 1.90 ± 0.15 pg/mL; TNF-α [4]: 2.16 ± 0.14 pg/mL; ALT level [5]: 48.29 ± 21.24 U/L; Hepatitis B activation rate (Ratio of ALT > 100 U/L) [5]: 0%; Observation on the daily condition of mice [5]: No abnormality; Inflammation score and area under the time curve (AUC) [5]: 95.71 ± 51.88
